Experimental data reported in US20230295087A1, “AGONISTS OF ROR GAMMAt” (BRISTOL-MYERS SQUIBB COMPANY, priority 2019, published 2023).

Biological target: T1, human RORgT (Homo sapiens, UniProt P51449)
T1 construct: expressed in transfected cells
T1 sequence (P51449 267-516): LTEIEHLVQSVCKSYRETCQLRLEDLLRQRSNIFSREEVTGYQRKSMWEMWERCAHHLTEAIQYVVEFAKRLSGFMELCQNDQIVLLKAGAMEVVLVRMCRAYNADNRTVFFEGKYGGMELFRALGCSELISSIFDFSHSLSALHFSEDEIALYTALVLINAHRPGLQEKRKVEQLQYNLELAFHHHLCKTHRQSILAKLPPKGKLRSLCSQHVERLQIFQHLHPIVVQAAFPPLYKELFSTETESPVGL
Test: RORgT Gal4 Luciferase Reporter Gene Assay
Assay type: cell-based
Conditions: engineered Jurkat cells overexpressing RORgT (LBD or full length) fused with Gal4 Luc reporter; 18 hours at 37° C.; luminescence
In short: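 Jurkat cells expressing Gal4 Luc with either RORgT LBD (aa267-516) or full-length human RORgT, 10,000 cells/well, treated with compound (40 µM to 0.67 nM final, 3-fold dilutions) for 18 h at 37° C. Steady-Glo luminescence read; inhibition of constitutive activity as % signal-window reduction relative to a control compound.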

EC50 [nM]	Compound
14	O=C(CN1CCS(=O)(=O)CC1)N1CC[C@@]2(S(=O)(=O)c3ccccc3)c3ccc(OCc4c(F)cccc4Cl)cc3CC[C@@H]12 [Example 139, 4-{2-[(3aR,9bR)-9b-(benzenesulfonyl)-7-[(2-chloro-6-fluorophenyl)methoxy]-1H,2H,3H,3aH,4H,5H,9bH-benzo[e]indol-3-yl]-2-oxoethyl}-1λ^6-thiomorpholine-1,1-dione]
134	O=C1CC(C(=O)N2CC[C@@]3(S(=O)(=O)c4ccccc4)c4ccc(OCc5c(F)cccc5Cl)cc4CC[C@@H]23)CN1 (stereo partly drawn) [Example 140, 4-[(3aR,9bR)-9b-(benzenesulfonyl)-7-[(2-chloro-6-fluorophenyl)methoxy]-1H,2H,3H,3aH,4H,5H,9bH-benzo[e]indole-3-carbonyl]pyrrolidin-2-one]
10	NC(=O)N1CCC(C(=O)N2CC[C@@]3(S(=O)(=O)c4ccccc4)c4ccc(OCc5c(F)cccc5Cl)cc4CC[C@@H]23)CC1 [Example 141, 4-[(3aR,9bR)-9b-(benzenesulfonyl)-7-[(2-chloro-6-fluorophenyl)methoxy]-1H,2H,3H,3aH,4H,5H,9bH-benzo[e]indole-3-carbonyl]piperidine-1-carboxamide]
13	O=C(O)[C@H]1CC[C@H](C(=O)N2CC[C@@]3(S(=O)(=O)c4ccccc4)c4ccc(OCc5c(F)cccc5Cl)cc4CC[C@@H]23)CC1 [Example 142, (1r,4r)-4-[(3aR,9bR)-9b-(benzenesulfonyl)-7-[(2-chloro-6-fluorophenyl)methoxy]-1H,2H,3H,3aH,4H,5H,9bH-benzo[e]indole-3-carbonyl]cyclohexane-1-carboxylic acid]
195	O=C1CC[C@H](C(=O)N2CC[C@@]3(S(=O)(=O)c4ccccc4)c4ccc(OCc5c(F)cccc5Cl)cc4CC[C@@H]23)N1 [Example 143, (5R)-5-[(3aR,9bR)-9b-(benzenesulfonyl)-7-[(2-chloro-6-fluorophenyl)methoxy]-1H,2H,3H,3aH,4H,5H,9bH-benzo[e]indole-3-carbonyl]pyrrolidin-2-one]
111	CN1NC(=O)C[C@H]1C(=O)N1CC[C@@]2(S(=O)(=O)c3ccccc3)c3ccc(OCc4c(F)cccc4Cl)cc3CC[C@@H]12 [Example 144, (5S)-5-[(3aR,9bR)-9b-(benzenesulfonyl)-7-[(2-chloro-6-fluorophenyl)methoxy]-1H,2H,3H,3aH,4H,5H,9bH-benzo[e]indole-3-carbonyl]-1-methylpyrazolidin-3-one]
614	CS(=O)(=O)NCC(=O)N1CC[C@@]2(S(=O)(=O)c3ccccc3)c3ccc(OCc4c(F)cccc4Cl)cc3CC[C@@H]12 [Example 145, N-{2-[(3aR,9bR)-9b-(benzenesulfonyl)-7-[(2-chloro-6-fluorophenyl)methoxy]-1H,2H,3H,3aH,4H,5H,9bH-benzo[e]indol-3-yl]-2-oxoethyl} methanesulfonamide]
6.5	[2H]C([2H])([2H])N1C(=O)CC[C@H]1C(=O)N1CC[C@@]2(S(=O)(=O)c3ccccc3)c3ccc(OCc4c(F)cccc4Cl)cc3CC[C@@H]12 [Example 146, (5S)-5-[(3aR,9bR)-9b-(benzenesulfonyl)-7-[(2-chloro-6-fluorophenyl)methoxy]-1H,2H,3H,3aH,4H,5H,9bH-benzo[e]indole-3-carbonyl]-1-(^2H)methylpyrrolidin-2-one]
104	O=C(O)C12CCC(C(=O)N3CC[C@@]4(S(=O)(=O)c5ccccc5)c5ccc(OCc6c(F)cccc6Cl)cc5CC[C@@H]34)(CC1)CC2 [Example 147, 4-[(3aR,9bR)-9b-(benzenesulfonyl)-7-[(2-chloro-6-fluorophenyl)methoxy]-1H,2H,3H,3aH,4H,5H,9bH-benzo[e]indole-3-carbonyl]bicyclo[2.2.2]octane-1-carboxylic acid]
119	NS(=O)(=O)CC(=O)N1CC[C@@]2(S(=O)(=O)c3ccccc3)c3ccc(OCc4c(F)cccc4Cl)cc3CC[C@@H]12 [Example 148, 2-[(3aR,9bR)-9b-(benzenesulfonyl)-7-[(2-chloro-6-fluorophenyl)methoxy]-1H,2H,3H,3aH,4H,5H,9bH-benzo[e]indol-3-yl]-2-oxoethane-1-sulfonamide]
7.7	O=C(C1CCS(=O)(=O)CC1)N1CC[C@@]2(S(=O)(=O)c3ccccc3)c3ccc(OCc4c(F)cc(F)cc4Cl)cc3CC[C@@H]12 [Example 149, 4-[(3aR,9bR)-9b-(benzenesulfonyl)-7-[(2-chloro-4,6-difluorophenyl)methoxy]-1H,2H,3H,3aH,4H,5H,9bH-benzo[e]indole-3-carbonyl]-1λ^6-thiane-1,1-dione]
6.1	CN1C(=O)CC[C@H]1C(=O)N1CC[C@@]2(S(=O)(=O)c3ccccc3)c3ccc(OCc4c(F)cccc4Cl)cc3CC[C@@H]12 [Example 150, (5S)-5-[(3aR,9bR)-9b-(benzenesulfonyl)-7-[(2-chloro-6-fluorophenyl)methoxy]-1H,2H,3H,3aH,4H,5H,9bH-benzo[e]indole-3-carbonyl]-1-methylpyrrolidin-2-one]
16	O=C(O)[C@H]1CC[C@H](C(=O)N2CC[C@@]3(S(=O)(=O)c4ccc(F)cc4)c4ccc(OCc5cc(F)c(F)cc5Cl)cc4CC[C@@H]23)CC1 [Example 151, (1r,4r)-4-[(3aR,9bR)-7-[(2-chloro-4,5-difluorophenyl)methoxy]-9b-(4-fluorobenzenesulfonyl)-1H,2H,3H,3aH,4H,5H,9bH-benzo[e]indole-3-carbonyl]cyclohexane-1-carboxylic acid]
15	O=C(C1CCS(=O)(=O)CC1)N1CC[C@@]2(S(=O)(=O)c3ccc(F)cc3)c3ccc(OCc4cc(F)c(F)cc4Cl)cc3CC[C@@H]12 [Example 152, 4-[(3aR,9bR)-7-[(2-chloro-4,5-difluorophenyl)methoxy]-9b-(4-fluorobenzenesulfonyl)-1H,2H,3H,3aH,4H,5H,9bH-benzo[e]indole-3-carbonyl]-1λ^6-thiane-1,1-dione]
14	O=C(C1CCS(=O)(=O)CC1)N1CC[C@@]2(S(=O)(=O)c3ccc(F)cc3)c3ccc(OCc4cccc(Cl)c4)cc3CC[C@@H]12 [Example 153, 4-[(3aR,9bR)-7-[(3-chlorophenyl)methoxy]-9b-(4-fluorobenzenesulfonyl)-1H,2H,3H,3aH,4H,5H,9bH-benzo[e]indole-3-carbonyl]-1λ^6-thiane-1,1-dione]
58	NS(=O)(=O)CC(=O)N1CC[C@@]2(S(=O)(=O)c3ccc(F)cc3)c3ccc(OCc4c(F)cccc4Cl)cc3CC[C@@H]12 [Example 154, 2-[(3aR,9bR)-7-[(2-chloro-6-fluorophenyl)methoxy]-9b-(4-fluorobenzenesulfonyl)-1H,2H,3H,3aH,4H,5H,9bH-benzo[e]indol-3-yl]-2-1 oxoethane-1-sulfonamide]
4.3	N#CCCN1C(=O)CC[C@H]1C(=O)N1CC[C@@]2(S(=O)(=O)c3ccc(F)cc3)c3ccc(OCc4c(F)cccc4C(F)(F)F)cc3CC[C@@H]12 [Example 155, 3-[(2S)-2-[(3aR,9bR)-7-{[2-fluoro-6-(trifluoromethyl)phenyl]methoxy}-9b-(4-fluorobenzenesulfonyl)-1H,2H,3H,3aH,4H,5H,9bH-benzo[e]indole-3-carbonyl]-5-oxopyrrolidin-1-yl]propanenitrile]
11	N#CCCN1C(=O)CC[C@H]1C(=O)N1CC[C@@]2(S(=O)(=O)c3ccc(F)cc3)c3ccc(OCc4c(Cl)cccc4Cl)cc3CC[C@@H]12 [Example 156, 3-[(2S)-2-[(3aR,9bR)-7-[(2,6-dichlorophenyl)methoxy]-9b-(4-fluorobenzenesulfonyl)-1H,2H,3H,3aH,4H,5H,9bH-benzo[e]indole-3-carbonyl]-5-oxopyrrolidin-1-yl]propanenitrile]
4.3	N#CCCN1C(=O)CC[C@H]1C(=O)N1CC[C@@]2(S(=O)(=O)c3ccc(F)cc3)c3ccc(OCc4cc(Cl)ccc4Cl)cc3CC[C@@H]12 [Example 157, 3-[(2S)-2-[(3aR,9bR)-7-[(2,5-dichlorophenyl)methoxy]-9b-(4-fluorobenzenesulfonyl)-1H,2H,3H,3aH,4H,5H,9bH-benzo[e]indole-3-carbonyl]-5-oxopyrrolidin-l-yl]propanenitrile]
12	N#CCCN1C(=O)CC[C@H]1C(=O)N1CC[C@@]2(S(=O)(=O)c3ccc(F)cc3)c3ccc(OCc4cc(F)c(F)cc4Cl)cc3CC[C@@H]12 [Example 158, 3-[(2S)-2-[(3aR,9bR)-7-[(2-chloro-4,5-difluorophenyl)methoxy]-9b-(4-fluorobenzenesulfonyl)-1H,2H,3H,3aH,4H,5H,9bH-benzo[e]indole-3-carbonyl]-5-oxopyrrolidin-l-yl]propanenitrile]
1.1	O=C(O)[C@H]1CC[C@H](C(=O)N2CC[C@@]3(S(=O)(=O)c4ccc(F)cc4)c4ccc(CCc5c(Cl)cccc5Cl)cc4CC[C@@H]23)CC1 [Example 159, (1r,4r)-4-[(3aR,9bR)-7-[2-(2,6-dichlorophenyl)ethyl]-9b-(4-fluorobenzenesulfonyl)-1H,2H,3H,3aH,4H,5H,9bH-benzo[e]indole-3-carbonyl]cyclohexane-1-carboxylic acid]
10	N#CCCN1C(=O)CC[C@H]1C(=O)N1CC[C@@]2(S(=O)(=O)c3ccc(F)cc3)c3ccc(OCc4c(F)cccc4Cl)cc3CC[C@@H]12 [Example 160, 3-[(2S)-2-[(3aR,9bR)-7-[(2-chloro-6-fluorophenyl)methoxy]-9b-(4-fluorobenzenesulfonyl)-1H,2H,3H,3aH,4H,5H,9bH-benzo[e]indole-3-carbonyl]-5-oxopyrrolidin-l-yl]propanenitrile]
